Source: patent US6162810A, “Inadone and tetralone compounds for inhibiting cell proliferation” (The Regents of the University of California, priority 1998, dated 2000)

Key:
[1] = test system: human Jurkat T cell leukemia cells; assay: Cytotoxicity to human Jurkat T cell leukemia cells, 3 days culture; assay type: cell-based; details: 72 h, concentration necessary to kill 50% of the cells, three days, OD570/650, read-out: TC50 (the source's name)
Method: (A) The compounds prepared in Example 1 above were tested for biological activity by culturing human Jurkat T cell leukemia cells for three days at an initial density of 10^5 cells/ml in RPMI 1640+10% FBS (fetal bovine serum). Compounds of the invention were added, and the concentration necessary to kill 50% (TC50) of the cells was determined by OD570/650.

[2] = test system: proliferating cells; assay: Ability of further compounds to kill proliferating cells (average); assay type: cell-based; details: average TC50, proliferating cells; read-out: TC50 (the source's name)
Method: (§1) (B) Similarly, compounds of the invention were tested for their ability to kill CEM WT, CEM AB9228, MOLT-4, Jurkat, NALL-1, WI-L2, K562, and HL-60 cells.
(C) Proceeding as described above, further compounds were tested for their ability to kill proliferating cells.

[3] = test system: CEM WT, CEM AB9228, MOLT-4, Jurkat, NALL-1, WI-L2, K562, and HL-60 cells; assay: Cytotoxicity to various proliferating cell lines (average); assay type: cell-based, human; details: Homo sapiens, average TC50 over various proliferating cell lines; read-out: TC50 (the source's name)
Method: as §1

[4] = test system: caspase-3 in HL-60 cells; assay: Caspase-3 activation in HL-60 cells; assay type: cell-based, human; details: HL-60 cells
[5] = test system: HL-60/ADR cells; assay: Apoptosis of HL-60/ADR cells (FACS); assay type: cell-based, human
Method: FACS analysis was performed to determine the influence of the TB compounds of the invention on growth cycling of cells (the analysis was performed on harvested cells, fixed in ice-cold 70% ethanol solution, then treated with 100 μg/ml of RNAse A and stained with 50 μg/ml propidium iodide for 1 h at 37° C. DNA content of the cells was analyzed by flow cytometry (Becton Dickinson FACScalibur), and the cell cycle distribution was calculated with the program ModFit LT 2.0 (Verity Software)).
First, the stage at which the TB compounds of the invention arrest growth of HL-60 and HL-60/ADR cells was determined by FACS analysis and caspase-3 activation as described above.

[6] = test system: tubulin; assay: Inhibition of [3H]vinblastine binding to tubulin; design: species or system bovine; details: single experiment
Method: The TB compounds of the invention (as represented by TB compound IK-178), are nearly as potent as the strong tubulin assembly inhibitor, combretastatin A-4 (CS-A4). In particular, the GI^50 inhibitory concentration of CS-A4 was 1.2±0.03 μM (n=4), while that of TB compound IK-178 was 1.7±0.1 μM (n=3).

[7] = test system: tubulin; assay: Inhibition of tubulin assembly; assay type: biochemical, bovine; details: 10 μM tubulin, 20 min incubation, 30° C.; read-out: GI50 inhibitory concentration (tubulin assembly)
Method: To evaluate the effects of the TB compounds of the invention on tubulin, bovine brain tubulin (2.2 mg/ml) was incubated in PEM80 (80 mM K-PIPES, 1 mM MgCl2, 1 mM EGTA) containing 10% glycerol and 2 mM GTP for 30 minutes at 37° C. in the presence or absence of 20 μg/ml nocodazole, 1 mM paclitaxel, or TB compound no. IK-178 at various concentrations. Tubulin polymer was resolved from monomer by sedimentation through a cushion of 60% glycerol in PEM80 at 70,000 rpm for 30 min at 37° C. in a Beckman TLA100 rotor. A fraction of the supernatant was removed for analysis, the cushion washed and then aspirated, and the pellet resuspended in SDS-PAGE sample buffer. Equal proportions of the supernatant and the pellet were then resolved by SDS-PAGE and tubulin visualized by staining with Coomassie blue.
The quantitative assessment of drug inhibition of tubulin polymerization and evaluation of inhibition of [^3 H]colchicine binding to tubulin were then performed. […] Samples were placed on ice and GTP (0.4 mM) was added. Reaction mixtures were transferred to 0° C. cuvettes in Gilford 250 spectrophotometers, baselines were establishes/d, and the temperature was jumped to 30° C. with electronic temperature controllers (about 60 sec). The IC^50 was defined as the drug concentration required to inhibit extent of assembly after a 20 min incubation. […]

[8] = test system: HL-60/ADR; assay: Growth inhibition of HL-60/ADR (MDR); assay type: cell-based; details: Homo sapiens, HL60/ADR, ±1 SD, n>5
[9] = test system: MV522/Q6; assay: Growth inhibition of MV522/Q6 (MDR); assay type: cell-based; details: Homo sapiens, ±1 SD, n>5
[10] = test system: MDA3-1/gp170; assay: Growth inhibition of MDA3-1/gp170 (MDR); assay type: cell-based; details: Homo sapiens, MDR1, ±1 SD, n>5
[11] = test system: MES-SA/DX5; assay: Growth inhibition of MES-SA/DX5 (MDR); assay type: cell-based; details: Homo sapiens, ±1 SD, n>5
[12] = test system: CEM/VLB100; assay: Growth inhibition of CEM/VLB100 (MDR); assay type: cell-based; details: Homo sapiens, ±1 SD, n>5
[13] = test system: HL-60/ADR and MDF-7/ADR cells; assay: MTT assay, visual comparison of cells with and without MDR (FIGS. 1 and 2); assay type: cell-based, human; details: 3 days
[14] = test system: MCF-7; assay: Growth inhibition of MCF-7 (wild type); assay type: cell-based; details: Homo sapiens, MCF7, ±1 SD, n>5
[15] = test system: MDA-MB-321; assay: Growth inhibition of MDA-MB-321 (wild type); assay type: cell-based; details: Homo sapiens, ±1 SD, n>5
[16] = test system: MV522; assay: Growth inhibition of MV522 (wild type); assay type: cell-based; details: Homo sapiens, ±1 SD, n>5
[17] = test system: MCF-7/ADR; assay: Growth inhibition of MCF-7/ADR (MDR); assay type: cell-based; details: Homo sapiens, NCI/ADR-RES, ±1 SD, n>5
[18] = test system: KB-GRC-1; assay: Growth inhibition of KB-GRC-1 (MDR); assay type: cell-based; details: Homo sapiens, MDR1, ±1 SD, n>5
[19] = test system: CEM; assay: Growth inhibition of CEM (wild type); assay type: cell-based; details: Homo sapiens, CCRF-CEM, ±1 SD, n>5
[20] = test system: MES-SA; assay: Growth inhibition of MES-SA (wild type); assay type: cell-based; details: Homo sapiens, ±1 SD, n>5
[21] = test system: HL-60; assay: Growth inhibition of HL-60 (wild type); assay type: cell-based; details: Homo sapiens, ±1 SD, n>5
[22] = test system: KB-3-1; assay: Growth inhibition of KB-3-1 (wild type); assay type: cell-based; details: Homo sapiens, ±1 SD, n>5
[23] = test system: KB-GRC-1 and MV522/Q6; assay: MTT proliferation assay of mdr1 overexpressing transfectomas; assay type: cell-based, human; details: 72 h

`COc1cc2c(cc1OC)C(=O)/C(=C/c1cc(Cl)cc(Cl)c1)C2` [5,6-dimethoxy-2-(3',5'-dichlorophenylmethylene)-1-indanone] was tested. Which CC50 [1] did it give?
Its CC50 is 750 nM.

And the CC50 [2]?
The CC50 was 2000 nM.

And the CC50 [3]?
The CC50 was 750 nM.

Which CC50 [1] does the source give for `COc1cc2c(cc1OC)C(=O)C(=Cc1cc(C)cc(C)c1)C2` [5,6-dimethoxy-2-(3',5'-dimethylphenylmethylene)-1-indanone] here?
The CC50 was 75 nM.

What about the CC50 [2] of the same compound?
Its CC50 is 81 nM.

And the CC50 [3]?
The CC50 was 75 nM.

Which results are given for `COc1cc(C=C2Cc3cc(OC)c(OC)cc3C2=O)cc(OC)c1` [5,6-dimethoxy-2-(3',5'-dimethoxyphenylmethylene)-1-indanone]?
CC50 [1]: 750 nM; CC50 [2]: 2000 nM; CC50 [3]: 750 nM

Which results are given for `COc1cc2c(c(OC)c1OC)-c1ccc(OC)c(=O)cc1[C@@H](NC(C)=O)CC2` [colchicine, reference compound]?
caspase-3 activity [4]: did not activate caspase-3; apoptosis [5]: did not induce the apoptosis

With `COc1cc2c(cc1OC)C(=O)C(=Cc1cc([N+](=O)[O-])ccc1O)C2` [5,6-dimethoxy-2-(2'-hydroxy-5'-nitrophenylmethylene)-1-indanone] as the compound, how does the CC50 [2] read?
Its CC50 is 14500 nM.

And the CC50 [3]?
The CC50 was 15000 nM.

For `COc1ccc(/C=C\c2cc(OC)c(OC)c(OC)c2)cc1O` [CS-A4, combretastatin A-4, reference compound], which “inhibition of [3H]vinblastine binding to tubulin” value [6] is on record?
The value was “Neither agent inhibited”.

What about the GI50 [7] of the same compound?
The GI50 was 1200 ± 30 nM.

With `COc1cc(/C=C2\CCc3cc(OC)c(OC)cc3C2=O)cc(OC)c1` [6,7-dimethoxy-2-(3',5'-dimethoxyphenylmethylene)-1-tetralone] as the compound, how does the CC50 [1] read?
The CC50 was 5000 nM.

What about the CC50 [3] of the same compound?
The CC50 was 4000 nM.

With `COc1cc(C=C2Cc3cc(OC)c(OC)cc3C2O)cc(OC)c1` (stereo not drawn) [5,6-dimethoxy-2-(3',5'-dimethoxyphenylmethylene)-1-hydroxyindane] as the compound, how does the CC50 [1] read?
The CC50 was 750 nM.

With `COc1cc(C=C2Cc3cc(OC)c(OC)cc3C2=NO)cc(OC)c1` [5,6-dimethoxy-2-(3',5'-dimethoxyphenylmethylene)-1-hydroximinioindane] as the compound, how does the CC50 [1] read?
Its CC50 is 800 nM.

And the CC50 [3]?
The CC50 was 800 nM.

What does the source list for `COc1ccc(C=C2CCc3cc(OC)c(OC)cc3C2=O)cc1OC` [6,7-dimethoxy-2-(3',4'-dimethoxyphenylmethylene)-1-tetralone]?
CC50 [2]: > 50000 nM; CC50 [3]: > 50000 nM

Which results are given for `COc1cc2c(cc1OC)C(=O)C(=Cc1cc(OC)c(O)c(OC)c1)C2` [5,6-dimethoxy-2-(3',5'-dimethoxy-4'-hydroxyphenylmethylene)-1-indanone]?
CC50 [2]: > 50000 nM; CC50 [3]: > 50000 nM

For `COc1cc2c(c([N+](=O)[O-])c1OC)C(=O)/C(=C/c1cc(C)c(O)c(C)c1)C2` [5,6-dimethoxy-7-nitro-2-(3',5'-dimethyl-4'-hydroxyphenylmethylene)-1-indanone], which CC50 [2] is on record?
Its CC50 is over 50000 nM.

And the CC50 [3]?
The CC50 was over 50000 nM.

How did the GI50 [8] turn out when `CC(=O)O[C@H]1C(=O)[C@@]2(C)[C@H]([C@H](OC(=O)c3ccccc3)[C@]3(O)C[C@H](OC(=O)[C@H](O)[C@@H](NC(=O)c4ccccc4)c4ccccc4)C(C)=C1C3(C)C)[C@]1(OC(C)=O)CO[C@@H]1C[C@@H]2O` [Paclitaxel, paclitaxel, reference compound] was run?
Its GI50 is over 1000 nM.

And the GI50 [9]?
The GI50 was 358 ± 8 nM.

What about the GI50 [10] of the same compound?
Its GI50 is over 1000 nM.

And the GI50 [11]?
Its GI50 is over 1000 nM.

What about the GI50 [12] of the same compound?
The GI50 was 606 ± 20 nM.

What about the “sensitivity with acquisition of MDR” value [13] of the same compound?
The value was “sensitivity to paclitaxel was lost”.

And the GI50 [14]?
The GI50 was 50 ± 6 nM.

What about the GI50 [15] of the same compound?
Its GI50 is 50 ± 2 nM.

What about the GI50 [16] of the same compound?
The GI50 was 15 ± 4 nM.

And the GI50 [17]?
Its GI50 is over 10000 nM.

And the GI50 [18]?
The GI50 was over 1000 nM.

What about the GI50 [19] of the same compound?
The GI50 was under 1 nM.

And the GI50 [20]?
The GI50 was under 1 nM.

What about the GI50 [21] of the same compound?
Its GI50 is under 1 nM.

And the GI50 [22]?
The GI50 was 7 ± 3 nM.

And the “sensitivity of transfectomas overexpressing mdr1” value [23]?
Its value is “resistant”.
